What was measured:
PBMC = conditions: 12.5 µM

SMILES	Average (percentage cell inhibition), Dmastoparan MDA-MB231 12.5uM (MDA-MB-231 cells)	Average (percentage cell inhibition), Mastoparan PBMC (PBMC)
CC[C@H](C)[C@H](N)C(=O)N[C@@H](CC(N)=O)C(=O)N[C@@H](CC(C)C)C(=O)N[C@@H](CCCCN)C(=O)N[C@@H](C)C(=O)N[C@@H](CC(C)C)C(=O)N[C@@H](C)C(=O)N[C@@H](C)C(=O)N[C@@H](CC(C)C)C(=O)N[C@@H](C)C(=O)N[C@@H](CCCCN)C(=O)N[C@@H](CCCCN)C(=O)N[C@H](C(=O)N[C@@H](CC(C)C)C(N)=O)[C@@H](C)CC [Lab Mastoparan L, reference compound]	41.709%	12.353%
CC[C@H](C)[C@H](N)C(=O)N[C@@H](CC(N)=O)C(=O)N[C@@H](CC(C)C)C(=O)N[C@@H](CCCCN)C(=O)N[C@@H](CC(N)=O)C(=O)N[C@@H](CC(C)C)C(=O)N[C@@H](C)C(=O)N[C@@H](C)C(=O)N[C@@H](CC(C)C)C(=O)N[C@@H](C)C(=O)N[C@@H](CCCCN)C(=O)N[C@@H](CCCCN)C(=O)N[C@H](C(=O)N[C@@H](CC(C)C)C(N)=O)[C@@H](C)CC [N5]	45.6062%	6.591%
CC[C@H](C)[C@H](N)C(=O)N[C@@H](CC(N)=O)C(=O)N[C@@H](CC(C)C)C(=O)N[C@@H](CCC(=O)O)C(=O)N[C@@H](C)C(=O)N[C@@H](CC(C)C)C(=O)N[C@@H](C)C(=O)N[C@@H](C)C(=O)N[C@@H](CC(C)C)C(=O)N[C@@H](C)C(=O)N[C@@H](CCCCN)C(=O)N[C@@H](CCCCN)C(=O)N[C@H](C(=O)N[C@@H](CC(C)C)C(N)=O)[C@@H](C)CC [E4]	27.9326%	5.1636%
CC[C@H](C)[C@H](N)C(=O)N[C@@H](CC(N)=O)C(=O)N[C@@H](CC(C)C)C(=O)N[C@@H](CCCCN)C(=O)N[C@@H](C)C(=O)N[C@@H](CC(C)C)C(=O)N[C@@H](C)C(=O)N[C@@H](C)C(=O)N[C@@H](CC(C)C)C(=O)N[C@@H](C)C(=O)N1CCC[C@H]1C(=O)N[C@@H](CCCCN)C(=O)N[C@H](C(=O)N[C@@H](CC(C)C)C(N)=O)[C@@H](C)CC [P11]	-0.07814%	-9.695%
CC[C@H](C)[C@H](N)C(=O)N[C@@H](CC(N)=O)C(=O)N[C@@H](CC(C)C)C(=O)N[C@@H](CCCCN)C(=O)N[C@@H](C)C(=O)N[C@@H](CC(C)C)C(=O)N[C@@H](C)C(=O)N[C@@H](C)C(=O)N[C@@H](CC(C)C)C(=O)N[C@@H](C)C(=O)N[C@@H](CCCCN)C(=O)N[C@@H](CCCCN)C(=O)N[C@@H](CO)C(=O)N[C@@H](CC(C)C)C(N)=O [S13]	39.6113%	-6.27%
CC[C@H](C)[C@H](N)C(=O)N[C@@H](CC(N)=O)C(=O)N[C@@H](CC(C)C)C(=O)N[C@@H](CCCCN)C(=O)N[C@@H](C)C(=O)N[C@@H](CC(C)C)C(=O)N[C@H](C(=O)N[C@@H](C)C(=O)N[C@@H](CC(C)C)C(=O)N[C@@H](C)C(=O)N[C@@H](CCCCN)C(=O)N[C@@H](CCCCN)C(=O)N[C@H](C(=O)N[C@@H](CC(C)C)C(N)=O)[C@@H](C)CC)[C@@H](C)CC [I7]	72.6071%	39.466%
CC[C@H](C)[C@H](N)C(=O)N[C@@H](CC(N)=O)C(=O)N[C@@H](CC(C)C)C(=O)N[C@@H](CCCCN)C(=O)N[C@@H](C)C(=O)N[C@@H](CC(C)C)C(=O)N[C@@H](C)C(=O)N[C@@H](C)C(=O)N[C@@H](C)C(=O)N[C@@H](C)C(=O)N[C@@H](CCCCN)C(=O)N[C@@H](CCCCN)C(=O)N[C@H](C(=O)N[C@@H](CC(C)C)C(N)=O)[C@@H](C)CC [A9]	23.1985%	-3.746%

Source: paper PMC12748989 (Nature Communications, 2025)
